Experimental data reported in article PMC5303205, “Comparative studies on the multi-component pharmacokinetics of Aristolochiae Fructus and honey-fried Aristolochiae Fructus extracts after oral administration in rats” (BMC Complementary and Alternative Medicine, 2017).
Like-named read-outs stand apart in the source and are kept apart here.

Columns and labels:
[1] = Multi-component pharmacokinetics of AAs in rats after oral administration of AF and HAF extracts (HPLC-MS/MS of plasma); design: species or system Sprague–Dawley (SD) rats; settings: Sprague-Dawley, rat, in vivo
Description: An aliquot (100 μl) of rat plasma was spiked with 10.0 μL IS, and vortexed with 300 μL acetic ether for 10 s before the supernatant was transferred into centrifuge tube. The extraction was repeated with 200 μL acetic ether. The combined organic layer was evaporated to dryness under a gentle stream of nitrogen at RT. The residue was resolved in 100 μL methanol and centrifuged at 15,800 × g for 10 min. The supernatant was used for HPLC-MS/MS analysis.
Chromatographic separation was performed by an Acquity C18 column (4.6 × 100 mm,3.5 μm) (Agilent Technologies, USA). The mobile phase was composed of water (containing 10 mM ammonium formate and formic acid, pH 3.0) (solvent A) and ACN (solvent B). The gradient profile of B was: 0–10 min, 35–38%; 10–11 min, 38– 60%; 11–17 min, 60–35%B; 17–18 min, 35%. The flow rate was kept at 0.5 mL/min. The column oven was set at 30 °C and the injection volume was 10 μL.
The mass spectrometer was operated in the positive ion electrospray mode with multiple reaction monitoring (MRM). The optimal MS parameters were set at the following parameters: a desolvation gas temperature of 450 °C, desolvation gas flow of 10 L/min, a nebulizer gas of 40 psi and a capillary voltage of 4000 V. The mass spectrometry conditions of AA I, AA II, AA C, AA D, 7-OH AA I and IS are summarized in Additional file 1: Table S1.
The rats were randomly divided into 6 groups (low, middle and high doses of AF and HAF; n = 6). After a week of acclimation, the animals were fasted for 12 h with free access to water. Then, AF and HAF extracts were administered to the rats. The extracts were suspended in 0.5% CMC–Na solution, and the oral doses (according to AA I in the extracts) were 3.0 mg/kg, 8.0 mg/kg and 15.0 mg/kg, respectively.
Blood samples were collected from the ocular vein using dried heparinized tubes at 0, 0.083, 0.17, 0.33, 0.50, 0.67, 0.83, 1, 2, 4, 6, 8, 10, 12 and 24 h from the start. The animals received fluid replacement (sterile isotonic saline) after every two samplings since the fifth collecting. The samples were then immediately centrifuged at 3100 × g for 10 min. The plasma obtained was frozen and stored at –20 °C until analysis.
All statistical analyses were performed using the SPSS 11.0 software (Chicago, USA). P values <0.05 were considered statistically significant. Pharmacokinetic analysis was performed using the proprietary DAS 3.0 software (Mathematical Pharmacology Professional Committee of China, Shanghai, China).
After the oral administration of AF and HAF extracts, rat plasma samples were prepared and analyzed as described above. Five main AAs can be detected in rat blood with the proposed HPLC-MS/MS method. The mean pharmacokinetic parameters of five AAs in AF and HAF are summarized in Tables 4, 5 and Additional files 5, 6, 7: Tables S4-S6. The maximum concentration (C max) was the experimentally-observed value. The other pharmacokinetic parameters of the five analytes were fitted by DAS 3.0 software.

[2] = Stability of AAs in rat plasma (QC samples, HPLC-MS/MS); type: in vitro ADME; settings: n = 5; for Short-term stability (RSD/%): fresh rat plasma at room temperature for 24 h before sample preparation; for Post-preparation stability (RSD/%): prepared rat plasma samples at room temperature for 24 h; for Long-term stability (RSD/%): rat plasma stored at –20 °C for 14 days; for Freeze-thaw stability (RSD/%): rat plasma, three freeze-thaw cycles (–20 °C 24 h, thawed at room temperature)
Description: The QC samples were assayed under several different conditions to evaluate the stability of AAs in rat plasma. The freeze-thaw stability of the analyte was determined over three freeze-thaw cycles. In each freeze-thaw cycle, the samples were frozen and stored at –20 °C for 24 h, then thawed at room temperature. To evaluate the long-term stability of AAs, the plasma samples were stored at –20 °C for 14 days. For the short-term stability, fresh plasma samples were kept at room temperature for 24 h before the sample preparation. After keeping the samples at room temperature for 24 h, post-preparation stability was tested. Stability was evaluated by comparing the mean concentration of the stored samples with the mean concentration of those prepared freshly. The stability data were acceptable when the bias was within ±15% of the actual value.

[3] = 3 mg/kg, AF extract, low dose (3.0 mg/kg as AA I), analyte dose mg/kg: AA I 3.0, AA II 0.21, AA C 1.42, AA D 1.60, 7-OH AA I 2.33, n = 6
[4] = 3 mg/kg, HAF extract, low dose (3.0 mg/kg as AA I), analyte dose mg/kg: AA I 3.0, AA II 0.26, AA C 1.53, AA D 1.51, 7-OH AA I 2.48, n = 6
[5] = 8 mg/kg, AF extract, mid dose (8.0 mg/kg as AA I), analyte dose mg/kg: AA I 8.0, AA II 0.56, AA C 3.78, AA D 4.26, 7-OH AA I 6.22, n = 6
[6] = 8 mg/kg, HAF extract, mid dose (8.0 mg/kg as AA I), analyte dose mg/kg: AA I 8.0, AA II 0.69, AA C 4.09, AA D 4.03, 7-OH AA I 6.62, n = 6
[7] = 15 mg/kg, AF extract, high dose (15.0 mg/kg as AA I), analyte dose mg/kg: AA I 15.0, AA II 1.05, AA C 7.09, AA D 8.00, 7-OH AA I 11.66, n = 6
[8] = 15 mg/kg, HAF extract, high dose (15.0 mg/kg as AA I), analyte dose mg/kg: AA I 15.0, AA II 1.29, AA C 7.66, AA D 7.56, 7-OH AA I 12.41, n = 6
[9] = high QC conc ng/mL: AA I 1830, AA II 3200, AA C 2980, AA D 3680, 7-OH AA I 3280
[10] = low QC conc ng/mL: AA I 1.83, AA II 8.00, AA C 186.3, AA D 36.8, 7-OH AA I 82.0
[11] = middle QC conc ng/mL: AA I 457.5, AA II 400, AA C 372.5, AA D 460, 7-OH AA I 410

With `COc1cc(O)cc2c1cc([N+](=O)[O-])c1c(C(=O)O)cc3c(c12)OCO3` [AA D] the AUC(0-inf) [1, 3] was 194 ng·h/mL, the Cmax [1, 3] was 78.5 ng/mL and the Tmax [1, 3] was 0.56 h. For the same compound, the CL/F ([1]; 3 mg/kg, AF extract, low dose (3.0 mg/kg as AA I), analyte dose mg/kg: AA I 3.0, AA II 0.21, AA C 1.42, AA D 1.60, 7-OH AA I 2.33, n = 6, read-out: CLz/F (converted)) was 168 mL/min/kg, the Vd/F ([1]; 3 mg/kg, AF extract, low dose (3.0 mg/kg as AA I), analyte dose mg/kg: AA I 3.0, AA II 0.21, AA C 1.42, AA D 1.60, 7-OH AA I 2.33, n = 6, read-out: Vz/F) was 35.7 L/kg and the half-life ([1]; 3 mg/kg, AF extract, low dose (3.0 mg/kg as AA I), analyte dose mg/kg: AA I 3.0, AA II 0.21, AA C 1.42, AA D 1.60, 7-OH AA I 2.33, n = 6, read-out: t 1/2z (converted)) was 2.45 h. It also gave an AUC(0-inf) [1, 4] of 179 ng·h/mL, a Cmax [1, 4] of 58.6 ng/mL and a Tmax [1, 4] of 0.78 h. For the same compound, the CL/F ([1]; 3 mg/kg, HAF extract, low dose (3.0 mg/kg as AA I), analyte dose mg/kg: AA I 3.0, AA II 0.26, AA C 1.53, AA D 1.51, 7-OH AA I 2.48, n = 6, read-out: CLz/F (converted)) was 158 mL/min/kg, the Vd/F ([1]; 3 mg/kg, HAF extract, low dose (3.0 mg/kg as AA I), analyte dose mg/kg: AA I 3.0, AA II 0.26, AA C 1.53, AA D 1.51, 7-OH AA I 2.48, n = 6, read-out: Vz/F) was 30.6 L/kg and the half-life ([1]; 3 mg/kg, HAF extract, low dose (3.0 mg/kg as AA I), analyte dose mg/kg: AA I 3.0, AA II 0.26, AA C 1.53, AA D 1.51, 7-OH AA I 2.48, n = 6, read-out: t 1/2z (converted)) was 2.05 h. The AUC(0-inf) [1, 5] was 402 ng·h/mL, the Cmax [1, 5] was 126 ng/mL and the Tmax [1, 5] was 0.56 h. For the same compound, the CL/F ([1]; 8 mg/kg, AF extract, mid dose (8.0 mg/kg as AA I), analyte dose mg/kg: AA I 8.0, AA II 0.56, AA C 3.78, AA D 4.26, 7-OH AA I 6.22, n = 6, read-out: CLz/F (converted)) was 359 mL/min/kg, the Vd/F ([1]; 8 mg/kg, AF extract, mid dose (8.0 mg/kg as AA I), analyte dose mg/kg: AA I 8.0, AA II 0.56, AA C 3.78, AA D 4.26, 7-OH AA I 6.22, n = 6, read-out: Vz/F) was 75.7 L/kg and the half-life ([1]; 8 mg/kg, AF extract, mid dose (8.0 mg/kg as AA I), analyte dose mg/kg: AA I 8.0, AA II 0.56, AA C 3.78, AA D 4.26, 7-OH AA I 6.22, n = 6, read-out: t 1/2z (converted)) was 2.43 h. The AUC(0-inf) [1, 6] was 323 ng·h/mL, the Cmax [1, 6] was 89.2 ng/mL and the Tmax [1, 6] was 0.75 h. For the same compound, the CL/F ([1]; 8 mg/kg, HAF extract, mid dose (8.0 mg/kg as AA I), analyte dose mg/kg: AA I 8.0, AA II 0.69, AA C 4.09, AA D 4.03, 7-OH AA I 6.62, n = 6, read-out: CLz/F (converted)) was 190 mL/min/kg, the Vd/F ([1]; 8 mg/kg, HAF extract, mid dose (8.0 mg/kg as AA I), analyte dose mg/kg: AA I 8.0, AA II 0.69, AA C 4.09, AA D 4.03, 7-OH AA I 6.62, n = 6, read-out: Vz/F) was 37.8 L/kg and the half-life ([1]; 8 mg/kg, HAF extract, mid dose (8.0 mg/kg as AA I), analyte dose mg/kg: AA I 8.0, AA II 0.69, AA C 4.09, AA D 4.03, 7-OH AA I 6.62, n = 6, read-out: t 1/2z (converted)) was 2.3 h. For the same compound, the AUC(0-inf) [1, 7] was 960 ng·h/mL, the Cmax [1, 7] was 155 ng/mL and the Tmax [1, 7] was 0.64 h. The CL/F ([1]; 15 mg/kg, AF extract, high dose (15.0 mg/kg as AA I), analyte dose mg/kg: AA I 15.0, AA II 1.05, AA C 7.09, AA D 8.00, 7-OH AA I 11.66, n = 6, read-out: CLz/F (converted)) was 560 mL/min/kg, the Vd/F ([1]; 15 mg/kg, AF extract, high dose (15.0 mg/kg as AA I), analyte dose mg/kg: AA I 15.0, AA II 1.05, AA C 7.09, AA D 8.00, 7-OH AA I 11.66, n = 6, read-out: Vz/F) was 153 L/kg and the half-life ([1]; 15 mg/kg, AF extract, high dose (15.0 mg/kg as AA I), analyte dose mg/kg: AA I 15.0, AA II 1.05, AA C 7.09, AA D 8.00, 7-OH AA I 11.66, n = 6, read-out: t 1/2z (converted)) was 2.89 h. The AUC(0-inf) [1, 8] was 590 ng·h/mL, the Cmax [1, 8] was 148 ng/mL and the Tmax [1, 8] was 0.63 h. The CL/F ([1]; 15 mg/kg, HAF extract, high dose (15.0 mg/kg as AA I), analyte dose mg/kg: AA I 15.0, AA II 1.29, AA C 7.66, AA D 7.56, 7-OH AA I 12.41, n = 6, read-out: CLz/F (converted)) was 206 mL/min/kg, the Vd/F ([1]; 15 mg/kg, HAF extract, high dose (15.0 mg/kg as AA I), analyte dose mg/kg: AA I 15.0, AA II 1.29, AA C 7.66, AA D 7.56, 7-OH AA I 12.41, n = 6, read-out: Vz/F) was 47.9 L/kg and the half-life ([1]; 15 mg/kg, HAF extract, high dose (15.0 mg/kg as AA I), analyte dose mg/kg: AA I 15.0, AA II 1.29, AA C 7.66, AA D 7.56, 7-OH AA I 12.41, n = 6, read-out: t 1/2z (converted)) was 2.4 h. The “Short-term stability (RSD/%)” value [2, 9] was 8.6%, the “Short-term stability (RSD/%)” value [2, 10] was 5.0% and the “Short-term stability (RSD/%)” value [2, 11] was 11.7%. For the same compound, the “Post-preparation stability (RSD/%)” value [2, 9] was 2.8%, the “Post-preparation stability (RSD/%)” value [2, 10] was 4.5% and the “Post-preparation stability (RSD/%)” value [2, 11] was 3.1%. For the same compound, the “Long-term stability (RSD/%)” value [2, 9] was 12.7%, the “Long-term stability (RSD/%)” value [2, 10] was 5.2% and the “Long-term stability (RSD/%)” value [2, 11] was 2.5%. For the same compound, the “Freeze-thaw stability (RSD/%)” value [2, 9] was 14.3%, the “Freeze-thaw stability (RSD/%)” value [2, 10] was 4.8% and the “Freeze-thaw stability (RSD/%)” value [2, 11] was 8.4%.
